{"source": "patent EP4562003B1", "about": "“NOVEL 7-SUBSTITUTED INDOLE SULFONAMIDE DERIVATIVES” (F. Hoffmann-La Roche AG, priority 2022, dated 2024)", "data": [{"target": "human GPR17 short isoform (Homo sapiens, UniProt Q13304)", "sequence (Q13304 29-367)": "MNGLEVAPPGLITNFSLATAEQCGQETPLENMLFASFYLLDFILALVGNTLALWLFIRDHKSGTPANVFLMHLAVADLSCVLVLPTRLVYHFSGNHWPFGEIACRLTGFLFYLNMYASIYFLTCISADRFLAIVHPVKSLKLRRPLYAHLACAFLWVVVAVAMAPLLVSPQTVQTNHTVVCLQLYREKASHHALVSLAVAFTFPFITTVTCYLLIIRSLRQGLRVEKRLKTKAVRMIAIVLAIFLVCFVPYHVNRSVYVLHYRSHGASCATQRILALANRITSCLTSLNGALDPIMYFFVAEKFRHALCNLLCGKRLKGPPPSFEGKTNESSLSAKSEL", "test": "GPR17 cAMP assay (TR-FRET cAMP quantification, antagonist mode)", "format": "cell-based", "conditions": "CHO-K1 cells stably expressing human GPR17 short isoform; EC80 of agonist MDL29,951; forskolin 15µM; IBMX 0.5mM; 30 minutes at room temperature; read-out: hGPR17 cAMP IC50", "outline": "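CHO-K1 cells stably expressing untagged human GPR17 short isoform, 10'000 cells/well in HBSS/10mM HEPES/0.1% BSA pH 7.4. Compounds added with EC80 MDL29,951 plus 0.5mM IBMX, then 15µM forskolin; 30 min at room temperature. cAMP read by TR-FRET after 90 min lysis; normalized to reference antagonist maximal activity, sigmoidal fit.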", "units": {"IC50": "nM"}, "values": [{"smiles": "COc1nc(NS(=O)(=O)c2c[nH]c3c(-c4ncco4)c(Cl)ccc23)nc(OC)c1OCC(F)F", "note": "[Example 2, 6-chloro-N-[5-(2,2-difluoroethoxy)-4,6-dimethoxy-pyrimidin-2-yl]-7-oxazol-2-yl-1H-indole-3-sulfonamide]", "IC50": 98}, {"smiles": "COc1nc(NS(=O)(=O)c2c[nH]c3c(-c4ncccn4)c(F)ccc23)nc(OC)c1OCCF", "note": "[Example 28, 6-fluoro-N-[5-(2-fluoroethoxy)-4,6-dimethoxy-pyrimidin-2-yl]-7-(2-pyrimidyl)-1H-indole-3-sulfonamide]", "IC50": 307}, {"smiles": "COc1nc(NS(=O)(=O)c2c[nH]c3c(-c4cccnn4)c(Br)ccc23)nc(OC)c1CC(F)F", "note": "[Example 43, 6-bromo-N-[5-(2,2-difluoroethyl)-4,6-dimethoxy-pyrimidin-2-yl]-7-pyridazin-3-yl-1H-indole-3-sulfonamide]", "IC50": 32}, {"smiles": "COc1nc(NS(=O)(=O)c2c[nH]c3c(-c4ncccn4)c(Cl)ccc23)nc(OC)c1OCC(F)F", "note": "[Example 1, 6-chloro-N-[5-(2,2-difluoroethoxy)-4,6-dimethoxy-pyrimidin-2-yl]-7-(2-pyrimidyl)-1H-indole-3-sulfonamide]", "IC50": 48}, {"smiles": "COc1nc(NS(=O)(=O)c2c[nH]c3c(-c4cnn(C)c4)c(Br)ccc23)nc(OC)c1OCC(F)F", "note": "[Example 69, 6-bromo-N-[5-(2,2-difluoroethoxy)-4,6-dimethoxy-pyrimidin-2-yl]-7-(1-methylpyrazol-4-yl)-1H-indole-3-sulfonamide]", "IC50": 56}, {"smiles": "COc1nc(NS(=O)(=O)c2c[nH]c3c(-c4ncccn4)c(C)ccc23)nc(OC)c1OCCF", "note": "[Example 56, N-[5-(2-fluoroethoxy)-4,6-dimethoxy-pyrimidin-2-yl]-6-methyl-7-(2-pyrimidyl)-1H-indole-3-sulfonamide]", "IC50": 129}, {"smiles": "COc1nc(NS(=O)(=O)c2c[nH]c3c(-c4cnccn4)c(Cl)ccc23)nc(OC)c1OCCF", "note": "[Example 21, 6-chloro-N-[5-(2-fluoroethoxy)-4,6-dimethoxy-pyrimidin-2-yl]-7-pyrazin-2-yl-1H-indole-3-sulfonamide]", "IC50": 40}, {"smiles": "COc1nc(NS(=O)(=O)c2c[nH]c3c(-c4ncccn4)c(Br)ccc23)nc(OC)c1OC(F)F", "note": "[Example 36, 6-bromo-N-[5-(difluoromethoxy)-4,6-dimethoxy-pyrimidin-2-yl]-7-(2-pyrimidyl)-1H-indole-3-sulfonamide]", "IC50": 42}, {"smiles": "COc1nc(NS(=O)(=O)c2c[nH]c3c(-c4cnccn4)cccc23)nc(OC)c1CC(F)F", "note": "[Example 25, N-[5-(2,2-difluoroethyl)-4,6-dimethoxy-pyrimidin-2-yl]-7-pyrazin-2-yl-1H-indole-3-sulfonamide]", "IC50": 56}, {"smiles": "COc1nc(NS(=O)(=O)c2c[nH]c3c(-c4cnccn4)c(F)ccc23)nc(OC)c1OC(F)F", "note": "[Example 34, N-[5-(difluoromethoxy)-4,6-dimethoxy-pyrimidin-2-yl]-6-fluoro-7-pyrazin-2-yl-1H-indole-3-sulfonamide]", "IC50": 407}, {"smiles": "COc1nc(NS(=O)(=O)c2c[nH]c3c(-c4ncccn4)c(Br)ccc23)nc(OC)c1OCCF", "note": "[Example 37, 6-bromo-N-[5-(2-fluoroethoxy)-4,6-dimethoxy-pyrimidin-2-yl]-7-(2-pyrimidyl)-1H-indole-3-sulfonamide]", "IC50": 67}, {"smiles": "COc1nc(NS(=O)(=O)c2c[nH]c3c(-c4cccnn4)cccc23)nc(OC)c1CC(F)F", "note": "[Example 11, N-[5-(2,2-difluoroethyl)-4,6-dimethoxy-pyrimidin-2-yl]-7-pyridazin-3-yl-1H-indole-3-sulfonamide]", "IC50": 50}, {"smiles": "COc1nc(NS(=O)(=O)c2c[nH]c3c(-c4cnccn4)c(F)ccc23)nc(OC)c1CC(F)F", "note": "[Example 31, N-[5-(2,2-difluoroethyl)-4,6-dimethoxy-pyrimidin-2-yl]-6-fluoro-7-pyrazin-2-yl-1H-indole-3-sulfonamide]", "IC50": 84}, {"smiles": "COc1nc(NS(=O)(=O)c2c[nH]c3c(-c4cnc(C)cn4)c(Cl)ccc23)nc(OC)c1OCC(F)F", "note": "[Example 84, 6-chloro-N-[5-(2,2-difluoroethoxy)-4,6-dimethoxy-pyrimidin-2-yl]-7-(5-methylpyrazin-2-yl)-1H-indole-3-sulfonamide]", "IC50": 52}, {"smiles": "COc1nc(NS(=O)(=O)c2c[nH]c3c(-c4ncccn4)c(Cl)ccc23)nc(OC)c1OCCF", "note": "[Example 22, 6-chloro-N-[5-(2-fluoroethoxy)-4,6-dimethoxy-pyrimidin-2-yl]-7-(2-pyrimidyl)-1H-indole-3-sulfonamide]", "IC50": 80}, {"smiles": "COc1nc(NS(=O)(=O)c2c[nH]c3c(-c4nccnc4C)cccc23)nc(OC)c1CC(F)F", "note": "[Example 53, N-[5-(2,2-difluoroethyl)-4,6-dimethoxy-pyrimidin-2-yl]-7-(3-methylpyrazin-2-yl)-1H-indole-3-sulfonamide]", "IC50": 43}, {"smiles": "COc1nc(NS(=O)(=O)c2c[nH]c3c(-c4nccn4C)c(F)ccc23)nc(OC)c1OCC(F)F", "note": "[Example 9, N-[5-(2,2-difluoroethoxy)-4,6-dimethoxy-pyrimidin-2-yl]-6-fluoro-7-(1-methylimidazol-2-yl)-1H-indole-3-sulfonamide]", "IC50": 69}, {"smiles": "COc1nc(NS(=O)(=O)c2c[nH]c3c(-c4ncccn4)c(F)ccc23)nc(OC)c1OC(F)F", "note": "[Example 29, N-[5-(difluoromethoxy)-4,6-dimethoxy-pyrimidin-2-yl]-6-fluoro-7-(2-pyrimidyl)-1H-indole-3-sulfonamide]", "IC50": 604}, {"smiles": "COc1nc(NS(=O)(=O)c2c[nH]c3c(-c4nccnc4Cl)c(Cl)ccc23)nc(OC)c1OC(F)F", "note": "[Example 64, 6-chloro-7-(3-chloropyrazin-2-yl)-N-[5-(difluoromethoxy)-4,6-dimethoxy-pyrimidin-2-yl]-1H-indole-3-sulfonamide]", "IC50": 35}, {"smiles": "COc1nc(NS(=O)(=O)c2c[nH]c3c(-c4cn(C)cn4)c(Cl)ccc23)nc(OC)c1OCC(F)F", "note": "[Example 47, 6-chloro-N-[5-(2,2-difluoroethoxy)-4,6-dimethoxy-pyrimidin-2-yl]-7-(1-methylimidazol-4-yl)-1H-indole-3-sulfonamide]", "IC50": 17}, {"smiles": "COc1nc(NS(=O)(=O)c2c[nH]c3c(-c4ccn(C)n4)c(Cl)ccc23)nc(OC)c1OC(F)F", "note": "[Example 67, 6-chloro-N-[5-(difluoromethoxy)-4,6-dimethoxy-pyrimidin-2-yl]-7-(1-methylpyrazol-3-yl)-1H-indole-3-sulfonamide]", "IC50": 24}, {"smiles": "COc1nc(NS(=O)(=O)c2c[nH]c3c(-c4ncccn4)c(Cl)ccc23)ncc1OCCF", "note": "[Example 80, 6-chloro-N-[5-(2-fluoroethoxy)-4-methoxy-pyrimidin-2-yl]-7-(2-pyrimidyl)-1H-indole-3-sulfonamide]", "IC50": 260}, {"smiles": "COc1nc(NS(=O)(=O)c2c[nH]c3c(-c4nccn4C)cccc23)nc(OC)c1CC(F)F", "note": "[Example 5, N-[5-(2,2-difluoroethyl)-4,6-dimethoxy-pyrimidin-2-yl]-7-(1-methylimidazol-2-yl)-1H-indole-3-sulfonamide]", "IC50": 26}, {"smiles": "COc1nc(NS(=O)(=O)c2c[nH]c3c(-c4ncccn4)c(Cl)ccc23)nc(OC)c1OC(F)F", "note": "[Example 23, 6-chloro-N-[5-(difluoromethoxy)-4,6-dimethoxy-pyrimidin-2-yl]-7-(2-pyrimidyl)-1H-indole-3-sulfonamide]", "IC50": 50}, {"smiles": "COc1nc(NS(=O)(=O)c2c[nH]c3c(-c4ncccn4)c(Br)ccc23)nc(OC)c1OCC(F)F", "note": "[Example 38, 6-bromo-N-[5-(2,2-difluoroethoxy)-4,6-dimethoxy-pyrimidin-2-yl]-7-(2-pyrimidyl)-1H-indole-3-sulfonamide]", "IC50": 54}, {"smiles": "COc1nc(NS(=O)(=O)c2c[nH]c3c(-c4cccnn4)cccc23)nc(OC)c1OCC(F)F", "note": "[Example 12, N-[5-(2,2-difluoroethoxy)-4,6-dimethoxy-pyrimidin-2-yl]-7-pyridazin-3-yl-1H-indole-3-sulfonamide]", "IC50": 85}, {"smiles": "COc1nc(NS(=O)(=O)c2c[nH]c3c(-c4ccccn4)c(Cl)ccc23)nc(OC)c1CC(F)F", "note": "[Example 18, 6-chloro-N-[5-(2,2-difluoroethyl)-4,6-dimethoxy-pyrimidin-2-yl]-7-(2-pyridyl)-1H-indole-3-sulfonamide]", "IC50": 19}, {"smiles": "COc1nc(NS(=O)(=O)c2c[nH]c3c(-c4ncccn4)c(Cl)ccc23)nc(OC)c1CC(F)F", "note": "[Example 3, 6-chloro-N-[5-(2,2-difluoroethyl)-4,6-dimethoxy-pyrimidin-2-yl]-7-(2-pyrimidyl)-1H-indole-3-sulfonamide]", "IC50": 46}, {"smiles": "COc1nc(NS(=O)(=O)c2c[nH]c3c(-c4cnc(F)cn4)c(Cl)ccc23)nc(OC)c1OCC(F)F", "note": "[Example 42, 6-chloro-N-[5-(2,2-difluoroethoxy)-4,6-dimethoxy-pyrimidin-2-yl]-7-(5-fluoropyrazin-2-yl)-1H-indole-3-sulfonamide]", "IC50": 38}, {"smiles": "COc1nc(NS(=O)(=O)c2c[nH]c3c(-c4cnccn4)c(C)ccc23)nc(OC)c1OC(F)F", "note": "[Example 59, N-[5-(difluoromethoxy)-4,6-dimethoxy-pyrimidin-2-yl]-6-methyl-7-pyrazin-2-yl-1H-indole-3-sulfonamide]", "IC50": 68}, {"smiles": "COc1nc(NS(=O)(=O)c2c[nH]c3c(-c4cnc(C)cn4)c(Cl)ccc23)nc(OC)c1CC(F)F", "note": "[Example 82, 6-chloro-N-[5-(2,2-difluoroethyl)-4,6-dimethoxy-pyrimidin-2-yl]-7-(5-methylpyrazin-2-yl)-1H-indole-3-sulfonamide]", "IC50": 47}, {"smiles": "COc1nc(NS(=O)(=O)c2c[nH]c3c(-c4cn(C)nn4)c(Cl)ccc23)nc(OC)c1OCC(F)F", "note": "[Example 101, 6-chloro-N-[5-(2,2-difluoroethoxy)-4,6-dimethoxy-pyrimidin-2-yl]-7-(1-methyltriazol-4-yl)-1H-indole-3-sulfonamide]", "IC50": 43}, {"smiles": "COc1nc(NS(=O)(=O)c2c[nH]c3c(-c4ncccn4)c(C)ccc23)nc(OC)c1OC(F)F", "note": "[Example 55, N-[5-(difluoromethoxy)-4,6-dimethoxy-pyrimidin-2-yl]-6-methyl-7-(2-pyrimidyl)-1H-indole-3-sulfonamide]", "IC50": 157}]}]}
